Values belong to the compound of their own block, whether it stands above or below them. Starred links: 1 amine or outer side, 2 acyl side, 3 side chain; linkers in the order of their positions; H or OH if unused. Non-standard residues stand in square brackets, D forms with d. Residues, ends and D or L forms follow the SMILES beside them. X6 = O=C([C@H](Cc1ccc(O)cc1)NC(=S)[C@H]1CCCN1[*:1])[*:2]; X3 = CC(C)C[C@H](N[*:1])C(=S)N[C@H](CC(C)C)C(=O)[*:2]; X4 = CC(C)C[C@H](N[*:1])C(=S)N1CCC[C@@H]1C(=O)[*:2]; X16 = CC(C)C[C@H](N[*:1])C(=S)N[C@H](C)C(=O)[*:2]; NMeL = CN[C@@H](CC(C)C)C(=O)O
What was measured:
[1] = type: physicochemical
[2] = PAMPA passive permeability; type: in vitro ADME;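 also: passive permeability across an artificial membrane in 96-well pre-coated PAMPA plates, which lack transporters and efflux systems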
Procedure: Encouraged by this, the passive permeability of the analogs was evaluated using an artificial membrane (PAMPA), which measures permeability of compounds in the absence of transporters and efflux systems[32].
96-well BD Corning® pre-coated PAMPA plates were used following the supplier’s protocol, details in Supplementary Information.

physchem = conditions: pH 7.4
[3] = Retention in hydrophobic C18 column by HPLC; conditions: Supplementary Fig 3d, logD7.4 vs tR
[4] = type: physicochemical; remark: listed apart in the source
in vitro [5] = type: in vitro ADME, human
Procedure: (§1) The Caco-2 cell (HTB-37^TM from ATCC, procured from NCCS, Pune) monolayer was washed and pre-incubated at 37 °C and 5% CO2 for 30 min with HBSS-HEPES buffer containing 1% DMSO prior to experimentation. The assay was performed 21 days post-seeding of cells. TEER values were measured before starting and after the completion of the assay. Acceptor and donor well concentrations of the peptides and controls were assessed through LC-MS/MS.

Caco-2 cells = test: in vitro; type: in vitro ADME, human; conditions: Caco-2
Procedure: as §1

in vitro [6] = conditions: both, human, plasma
pepsin = pepsin (Sus scrofa, UniProt P00791); test: in vitro; conditions: simulated gastric fluid, pH 1.2
Procedure: (§2) A stability assessment of the peptides was done in simulated gastric (SGF) and intestinal (SIF) fluids and human liver microsomes. The degradation kinetics of the aliquoted samples at desired time points were analyzed through RP-HPLC.

in vitro [7] = conditions: pig, simulated intestinal fluid
in vitro [8] = conditions: human, microsomes
Procedure: as §2

in vitro [9] = conditions: both, human, plasma; remark: listed apart in the source
Procedure: Blood was freshly drawn from three healthy adults, two male and one person of 26–28 year old. […] The plasma was separated by centrifugation. […] For checking metabolic stability, the required volume of plasma was pre-incubated at 37 °C prior to the experiment for 2 min, followed by spiking with the peptides. At different time points, plasma was aliquoted. The supernatant was separated and used for RP-HPLC quantification. Rapid Equilibrium Dialysis (RED) assay was performed to assess the plasma protein binding of the peptides following the supplier’s protocol.

[10] = rat, in vivo, po, 10 mg/kg
Procedure: (§3) All animals were housed individually in the animal facility at Anthem Biosciences Pvt. Ltd and were acclimatized for 3 days. All animals were fasted overnight before dosing, whereas access to water was provided ad libitum. Peptides were administered orally and via s.c. route and blood samples were collected at different time points through a jugular vein catheter.

in vivo = conditions: male, Wistar, rat
Procedure: as §3
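For Papp A-B + Elacridar avg in this document: Caco-2 monolayers used 21 days after seeding in HBSS-HEPES buffer with 1% DMSO, donor and acceptor levels quantified by LC-MS/MS, TEER checked before and after.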
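For Papp A-B + Elacridar set 1 in this document: Caco-2 monolayers used 21 days after seeding in HBSS-HEPES buffer with 1% DMSO, donor and acceptor levels quantified by LC-MS/MS, TEER checked before and after.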
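For Papp A-B + Elacridar set 2 in this document: Caco-2 monolayers used 21 days after seeding in HBSS-HEPES buffer with 1% DMSO, donor and acceptor levels quantified by LC-MS/MS, TEER checked before and after.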
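For Papp A-B avg in this document: Caco-2 monolayers used 21 days after seeding in HBSS-HEPES buffer with 1% DMSO, donor and acceptor levels quantified by LC-MS/MS, TEER checked before and after.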

Chain of pepsin (P00791 60-385): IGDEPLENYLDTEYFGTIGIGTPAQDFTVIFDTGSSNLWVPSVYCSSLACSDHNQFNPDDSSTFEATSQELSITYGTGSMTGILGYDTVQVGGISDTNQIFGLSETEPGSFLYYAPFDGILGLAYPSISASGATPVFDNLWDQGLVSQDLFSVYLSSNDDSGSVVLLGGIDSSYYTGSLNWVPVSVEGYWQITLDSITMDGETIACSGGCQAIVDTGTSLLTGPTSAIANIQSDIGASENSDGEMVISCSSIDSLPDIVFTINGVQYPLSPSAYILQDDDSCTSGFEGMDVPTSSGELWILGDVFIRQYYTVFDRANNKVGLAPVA
Procedure for human liver microsomes: as §2

SMILES: CC(C)C[C@@H]1NC(=O)[C@@H](CC(C)C)NC(=O)[C@H]2CCCN2C(=O)[C@H](CC(C)C)NC(=O)[C@@H](CC(C)C)NC(=O)[C@H](CC(C)C)NC(=O)[C@@H]2CCCN2C(=O)[C@@H](C)NC1=O [compound 12, cyclo(-D-Leu^1-Leu-D-Pro-D-Leu-Leu-D-Ala-Pro-Leu^8-)] (cyclo(L[dA]PL[dL]L[dP][dL]))
- % solubility [1]: 94%
- Papp ([2]; Pe Avg): 3 ×10⁻⁶ cm/s
- logD (physchem): 0.75
- tR [3]: 12.6 min

SMILES: CC[C@H](C)[C@@H]1NC(=O)[C@@H]2CCCN2C(=O)[C@H]([C@@H](C)CC)NC(=O)[C@@H]2CCCN2C(=O)[C@H](Cc2ccccc2)NC(=O)[C@H](C)NC(=O)[C@H](C)NC1=O [compound 11, cyclo(-Ile^1-Ala-Ala-Phe-Pro-Ile-Pro^7-)] (cyclo(AAFPIPI))
- % solubility [1]: 95%
- Papp ([2]; Pe (PAMPA vs logD7.4)): 0.41 ×10⁻⁶ cm/s
- Papp ([2]; Pe Avg): 0.4 ×10⁻⁶ cm/s
- logD (physchem): 0.1
- tR [3]: 5.299 min

SMILES: CC(C)C[C@@H]1NC(=O)[C@H](Cc2ccc(O)cc2)NC(=O)[C@H]2CCCN2C(=S)[C@H](CC(C)C)NC(=O)[C@H](CC(C)C)NC(=O)[C@@H](CC(C)C)NC1=O [10c] (cyclo(L[dL]L[X4]Y))
- % solubility [1]: 69%
- Pe Avg [2]: 3.1 ×10⁻⁶ cm/s
- Pe set1 [2]: 2.92 ×10⁻⁶ cm/s
- Pe set2 [2]: 3.69 ×10⁻⁶ cm/s
- Pe set3 [2]: 2.79 ×10⁻⁶ cm/s
- Papp ([2]; Pe Avg): 3.1 ×10⁻⁶ cm/s
- logD heptane ethylene glycol [4]: 0.72
- Papp B→A (in vitro [5]; Caco-2, Papp B-A + Elacridar avg): 0.6 ×10⁻⁶ cm/s
- Papp B→A (in vitro [5]; Caco-2, Papp B-A avg): 5.26 ×10⁻⁶ cm/s
- Papp A-B + Elacridar avg (Caco-2 cells): 0 ×10⁻⁶ cm/s
- Papp A-B + Elacridar set 1 (Caco-2 cells): 0 ×10⁻⁶ cm/s
- Papp A-B + Elacridar set 2 (Caco-2 cells): 0 ×10⁻⁶ cm/s
- Papp A-B avg (Caco-2 cells): 0 cm/s
- Papp A-B avg (second block) (Caco-2 cells): 0.00 cm/s
- Papp A-B set 1 (Caco-2 cells): 0 cm/s
- Papp A-B set 1 (second block) (Caco-2 cells): 0.00 cm/s
- Papp A-B set 2 (Caco-2 cells): 0 cm/s
- Papp A-B set 2 (second block) (Caco-2 cells): 0.00 cm/s
- Papp AB+Elacridar (PAMPA Caco2 correlation) (Caco-2 cells): 0 ×10⁻⁶ cm/s
- Papp B-A avg (second block) (Caco-2 cells): 5.3 ×10⁻⁶ cm/s
- Papp B-A set 1 (second block) (Caco-2 cells): 4.5 ×10⁻⁶ cm/s
- Papp B-A set 2 (second block) (Caco-2 cells): 6.1 ×10⁻⁶ cm/s
- Half lives (human liver microsomes): 13.8
- logD (physchem): 1.27
- fraction unbound (in vitro [6]): 0.24
- half-life (pepsin): 0.333 h
- remaining at 5 min (pepsin): 76%
- remaining at 10 min (pepsin): 68%
- remaining at 20 min (pepsin): 50%
- remaining at 0.5 h (pepsin): 41%
- remaining at 1 h (pepsin): 31%
- remaining at 2 h (pepsin): 26%
- remaining at 4 h (pepsin): 19%
- remaining at 8 h (pepsin): 12%
- remaining at 12 h (pepsin): 5%
- remaining at 24 h (pepsin): 0%
- half-life (in vitro [7]): 0.567 h
- remaining at 10 min (in vitro [7]): 70%
- remaining at 0.5 h (in vitro [7]): 50.7%
- remaining at 1 h (in vitro [7]): 46.6%
- remaining at 2 h (in vitro [7]): 38.4%
- remaining at 4 h (in vitro [7]): 29.3%
- remaining at 8 h (in vitro [7]): 26.2%
- remaining at 12 h (in vitro [7]): 20.6%
- remaining at 24 h (in vitro [7]): 12.8%
- microsomal CLint (in vitro [8]): 106 µL/min/mg
- remaining at 5 min (in vitro [8]): 76%
- remaining at 10 min (in vitro [8]): 56%
- remaining at 20 min (in vitro [8]): 45%
- remaining at 0.5 h (in vitro [8]): 35%
- remaining at 0.75 h (in vitro [8]): 16%
- remaining at 1 h (in vitro [8]): 17%
- half-life (in vitro [9]): 21 h
- remaining at 1 h (in vitro [9]): 87%
- remaining at 3 h (in vitro [9]): 83%
- remaining at 5 h (in vitro [9]): 78%
- remaining at 7 h (in vitro [9]): 75%
- remaining at 9 h (in vitro [9]): 64%
- remaining at 12 h (in vitro [9]): 60%
- remaining at 24 h (in vitro [9]): 44%
- remaining at 36 h (in vitro [9]): 34%
- remaining at 48 h (in vitro [9]): 26%
- remaining at 60 h (in vitro [9]): 10%
- remaining at 72 h (in vitro [9]): 12%

SMILES: CC(C)C[C@@H]1NC(=O)[C@@H](CC(C)C)NC(=O)[C@H](CC(C)C)N(C)C(=O)[C@H](Cc2ccc(O)cc2)NC(=O)[C@H]2CCCN2C(=O)[C@H](CC(C)C)NC1=O [10k] (cyclo(LL[dP]Y[NMeL][dL]))
- Papp ([2]; Pe Avg): 6.13 ×10⁻⁶ cm/s
- Half lives (human liver microsomes): 10.3
- Fold Change of AUClast p.o [10]: 393
- AUC(0-t) (in vivo; iv): 510 ng·h/mL
- Cmax (in vivo; iv): 1170 ng/mL
- MRT (in vivo; iv): 0.4 h
- Vd (in vivo; iv): 0.8 L/kg
- clearance (in vivo; iv): 33.3 mL/min/kg
- bioavailability (in vivo; po): 6.8%
- AUC(0-t) (in vivo; po, 10 mg/kg): 345 ng·h/mL
- Cmax (in vivo; po, 10 mg/kg): 55.9 ng/mL
- MRT (in vivo; po, 10 mg/kg): 9 h
- level at 3 h (in vivo; po, 10 mg/kg): 26.6 ng/mL
- logD (physchem): 1.2
- fraction unbound (in vitro [6]): 0.53
- half-life (pepsin): 1.75 h
- remaining at 2 min (pepsin): 97%
- remaining at 10 min (pepsin): 84%
- remaining at 20 min (pepsin): 77%
- remaining at 0.5 h (pepsin): 71%
- remaining at 1 h (pepsin): 65%
- remaining at 2 h (pepsin): 46%
- remaining at 4 h (pepsin): 19%
- remaining at 8 h (pepsin): 11%
- remaining at 12 h (pepsin): 7%
- half-life (in vitro [7]): 1.55 h
- remaining at 10 min (in vitro [7]): 88%
- remaining at 0.5 h (in vitro [7]): 75%
- remaining at 1 h (in vitro [7]): 62%
- remaining at 2 h (in vitro [7]): 39%
- remaining at 4 h (in vitro [7]): 30%
- remaining at 8 h (in vitro [7]): 6%
- remaining at 12 h (in vitro [7]): 3%
- microsomal CLint (in vitro [8]): 144 µL/min/mg
- remaining at 2 min (in vitro [8]): 67%
- remaining at 10 min (in vitro [8]): 50%
- remaining at 20 min (in vitro [8]): 28%
- remaining at 0.5 h (in vitro [8]): 16%
- remaining at 0.75 h (in vitro [8]): 4.69%
- remaining at 1 h (in vitro [8]): 5.45%
- half-life (in vitro [9]): 12 h
- remaining at 2 h (in vitro [9]): 82%
- remaining at 4 h (in vitro [9]): 69%
- remaining at 8 h (in vitro [9]): 57%
- remaining at 16 h (in vitro [9]): 39%
- remaining at 24 h (in vitro [9]): 28%
- remaining at 48 h (in vitro [9]): 8%
- remaining at 72 h (in vitro [9]): 2.65%

SMILES: CC(C)C[C@@H]1NC(=O)[C@H](Cc2ccc(O)cc2)NC(=S)[C@H]2CCCN2C(=O)[C@H](CC(C)C)NC(=O)[C@H](CC(C)C)NC(=O)[C@@H](CC(C)C)NC1=O [10d] (cyclo(LL[X6]L[dL]))
- % solubility [1]: 22%
- Pe Avg [2]: 4.2 ×10⁻⁶ cm/s
- Pe set1 [2]: 2.03 ×10⁻⁶ cm/s
- Pe set2 [2]: 5.97 ×10⁻⁶ cm/s
- Pe set3 [2]: 4.7 ×10⁻⁶ cm/s
- Papp ([2]; Pe Avg): 4.2 ×10⁻⁶ cm/s
- logD heptane ethylene glycol [4]: 0.72
- Half lives (human liver microsomes): 29.5
- logD (physchem): 1.24
- fraction unbound (in vitro [6]): 0.03
- half-life (pepsin): 0.4 h
- remaining at 5 min (pepsin): 75%
- remaining at 10 min (pepsin): 66%
- remaining at 20 min (pepsin): 56%
- remaining at 0.5 h (pepsin): 44%
- remaining at 1 h (pepsin): 37%
- remaining at 2 h (pepsin): 29%
- remaining at 4 h (pepsin): 21%
- remaining at 8 h (pepsin): 16%
- remaining at 12 h (pepsin): 6%
- remaining at 24 h (pepsin): 2%
- half-life (in vitro [7]): 1.35 h
- remaining at 10 min (in vitro [7]): 79.4%
- remaining at 0.5 h (in vitro [7]): 62.8%
- remaining at 1 h (in vitro [7]): 56.2%
- remaining at 2 h (in vitro [7]): 38.5%
- remaining at 4 h (in vitro [7]): 31.9%
- remaining at 8 h (in vitro [7]): 19.6%
- remaining at 12 h (in vitro [7]): 11.2%
- remaining at 24 h (in vitro [7]): 5.8%
- microsomal CLint (in vitro [8]): 47 µL/min/mg
- remaining at 5 min (in vitro [8]): 96%
- remaining at 10 min (in vitro [8]): 71%
- remaining at 20 min (in vitro [8]): 61%
- remaining at 0.5 h (in vitro [8]): 50%
- remaining at 0.75 h (in vitro [8]): 40%
- remaining at 1 h (in vitro [8]): 20%
- half-life (in vitro [9]): 20 h
- remaining at 1 h (in vitro [9]): 86%
- remaining at 3 h (in vitro [9]): 81%
- remaining at 5 h (in vitro [9]): 78%
- remaining at 7 h (in vitro [9]): 63%
- remaining at 9 h (in vitro [9]): 59%
- remaining at 12 h (in vitro [9]): 64%
- remaining at 24 h (in vitro [9]): 46%
- remaining at 36 h (in vitro [9]): 35%
- remaining at 48 h (in vitro [9]): 31%
- remaining at 60 h (in vitro [9]): 21%
- remaining at 72 h (in vitro [9]): 19%

More lines, now with the values ahead:

- % solubility [1]: 41%
- Papp ([2]; Pe Avg): 5.7 ×10⁻⁶ cm/s
- logD (physchem): 1.37
- tR [3]: 15 min
SMILES: CC(C)C[C@@H]1NC(=O)[C@@H]2CCCN2C(=O)[C@@H](C)NC(=S)[C@H](CC(C)C)NC(=O)[C@@H](CC(C)C)NC(=O)[C@H]2CCCN2C(=O)[C@H](CC(C)C)NC(=O)[C@@H](CC(C)C)NC1=O [12e] (cyclo([dL]L[dP][dL][X16]PL))

- % solubility [1]: 40%
- Papp ([2]; Pe Avg): 7.7 ×10⁻⁶ cm/s
- logD (physchem): 1.49
- tR [3]: 16.4 min
SMILES: CC(C)C[C@@H]1NC(=O)[C@@H](CC(C)C)NC(=O)[C@H]2CCCN2C(=O)[C@H](CC(C)C)NC(=O)[C@@H](CC(C)C)NC(=S)[C@H](CC(C)C)NC(=O)[C@@H]2CCCN2C(=O)[C@@H](C)NC1=O [12h] (cyclo([X3]L[dP][dL]L[dA]P))

Reference: publication PMC10539501 (Nature Communications, 2023)
